Values joined by “and” are separate entries in the source; they are usually repeats but may differ in a detail not shown here. Equal values may be shown once.
Columns and labels:
[1] = target: mGluR2 (Mus musculus, UniProt Q14BI2, A548F); assay: Live-cell FRET, azi-CRD (cysteine-rich domain) sensor in HEK293T cells; settings: for Mean normalized FRET response, azi-CRD PAM DRC: glutamate + 10μM BINA, maximal response normalized to 1mM glutamate
[2] = target: T1, mGluR2 (Mus musculus, UniProt Q14BI2); assay: Live-cell FRET, SNAP-m2 (VFT domain) inter-subunit sensor in HEK293T cells; settings: for SNAP-m2 FRET response (PAM DRC): individual cells, normalized to 1mM glutamate;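 for all read-outs here: apparent FRET efficiency from whole-membrane ROIs of single cells, corrected for donor bleed-through and background, ΔFRET as treatment minus pretreatment signal, recorded at room temperature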
[3] = target: mGluR2 (Mus musculus, UniProt Q14BI2, INS715F); assay: Live-cell FRET, azi-ECL2 (7TM domain, extracellular loop 2) sensor in HEK293T cells; settings: for Mean normalized azi-ECL2 FRET response: glutamate + 10μM modulator, maximal response normalized to 1mM glutamate;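 for all read-outs here: Cy3/Cy5 click-labeled sensor, whole-membrane ROIs per cell, apparent FRET after bleed-through correction, ΔFRET as treatment minus pre-treatment signal, at room temperature, at least three biological replicates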
[4] = target: T1, mGluR2; assay: Functional calcium imaging, SNAP-mGluR2 (no FLAG-tag) with chimeric G protein Gqo5 in HEK293T cells; type: cell-based; design: Full length mGluR2 construct with an amber codon (TAG) mutation of amino acid A548 (azi-CRD) or N-terminal SNAP-tag (SNAP-mGluR2); host or cells: HEK293T; settings: for Intracellular Ca2+ Response (normalized to 1mM glutamate), Mean: Glutamate + 1μM BINA
[5] = 10μM BINA, ([1 mM glutamate + modulator] - [1 mM glutamate]) × 100
[6] = Glutamate + 10μM BINA, log[Glutamate] (M) -5.82391
[7] = Glutamate + 10μM BINA, log[Glutamate] (M) -6.52288
[8] = Glutamate + 10μM BINA, log[Glutamate] (M) -7
[9] = Glutamate + 10μM BINA, log[Glutamate] (M) -7.30103
[10] = Glutamate + 10μM BINA, log[Glutamate] (M) -7.69897

Chain of mGluR2 (Mus musculus, UniProt Q14BI2, INS715F) (Q14BI2 with tags, fused parts or gaps INS715F): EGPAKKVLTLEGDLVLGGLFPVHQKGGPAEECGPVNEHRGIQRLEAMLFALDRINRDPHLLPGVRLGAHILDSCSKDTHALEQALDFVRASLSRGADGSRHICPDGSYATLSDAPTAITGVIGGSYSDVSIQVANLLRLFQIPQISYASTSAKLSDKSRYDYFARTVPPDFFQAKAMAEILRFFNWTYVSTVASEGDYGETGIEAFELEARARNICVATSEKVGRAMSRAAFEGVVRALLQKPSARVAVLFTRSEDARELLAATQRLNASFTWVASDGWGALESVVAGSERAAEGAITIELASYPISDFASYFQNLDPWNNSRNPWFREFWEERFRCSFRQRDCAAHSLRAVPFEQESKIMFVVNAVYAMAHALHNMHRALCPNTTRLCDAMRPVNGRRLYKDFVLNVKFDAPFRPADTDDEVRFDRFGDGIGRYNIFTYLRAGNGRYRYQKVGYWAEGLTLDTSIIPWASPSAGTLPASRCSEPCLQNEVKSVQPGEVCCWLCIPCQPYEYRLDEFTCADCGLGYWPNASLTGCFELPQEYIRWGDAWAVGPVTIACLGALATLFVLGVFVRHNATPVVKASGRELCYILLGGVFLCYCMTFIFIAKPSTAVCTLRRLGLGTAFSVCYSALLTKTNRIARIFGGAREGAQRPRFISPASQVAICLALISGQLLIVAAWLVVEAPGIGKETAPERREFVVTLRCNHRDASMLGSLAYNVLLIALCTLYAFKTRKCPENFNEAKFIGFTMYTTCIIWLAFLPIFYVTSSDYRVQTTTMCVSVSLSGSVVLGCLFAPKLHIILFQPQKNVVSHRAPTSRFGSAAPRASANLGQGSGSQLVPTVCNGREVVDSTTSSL
Chain of mGluR2 (Mus musculus, UniProt Q14BI2, A548F) (Q14BI2 19-872 A548F): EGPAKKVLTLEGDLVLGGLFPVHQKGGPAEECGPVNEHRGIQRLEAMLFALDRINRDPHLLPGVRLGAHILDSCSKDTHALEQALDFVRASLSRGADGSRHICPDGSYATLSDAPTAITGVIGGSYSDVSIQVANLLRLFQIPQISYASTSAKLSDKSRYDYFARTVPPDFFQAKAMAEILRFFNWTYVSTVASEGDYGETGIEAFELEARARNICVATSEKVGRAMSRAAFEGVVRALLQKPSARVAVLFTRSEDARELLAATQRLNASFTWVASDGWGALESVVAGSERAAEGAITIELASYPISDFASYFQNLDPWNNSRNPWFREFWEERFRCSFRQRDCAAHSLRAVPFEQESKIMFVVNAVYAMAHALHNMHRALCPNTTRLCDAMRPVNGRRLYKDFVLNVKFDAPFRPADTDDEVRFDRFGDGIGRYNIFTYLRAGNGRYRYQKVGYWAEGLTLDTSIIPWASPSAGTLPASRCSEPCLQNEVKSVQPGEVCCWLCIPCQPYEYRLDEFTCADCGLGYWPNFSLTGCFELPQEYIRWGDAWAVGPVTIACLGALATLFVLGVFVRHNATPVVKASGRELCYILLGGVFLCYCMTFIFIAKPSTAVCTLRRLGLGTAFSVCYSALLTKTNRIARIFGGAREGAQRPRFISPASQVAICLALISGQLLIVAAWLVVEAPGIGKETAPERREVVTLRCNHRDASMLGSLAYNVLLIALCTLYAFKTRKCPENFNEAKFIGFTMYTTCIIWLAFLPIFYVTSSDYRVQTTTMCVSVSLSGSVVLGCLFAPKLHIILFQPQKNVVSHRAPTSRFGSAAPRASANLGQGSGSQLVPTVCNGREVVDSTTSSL
T1 sequence (Q14BI2 19-872): as the sequence (Q14BI2 19-872 A548F) above, with F530A counted along it

azi-CRD - ΔEfficacy, Mean ΔEfficacy [1, 5]: 12.0943
Hill slope of glutamate titration ([1]; azi-CRD sensor, + 10 μM modulator): 1.16
Mean max response (normalized max ΔFRET) ([1]; azi-CRD, 1 mM glutamate + 10 μM modulator, normalized to 1 mM glutamate): 1.12
Mean ΔPotency ([1]; azi-CRD, 10μM modulator, (([modulator + glutamate]EC50 – [glutamate] EC50)/[glutamate] EC50) × 100): -86.2846
Mean normalized FRET response, azi-CRD PAM DRC ([1]; log[Glutamate] (M) -3): 1.121
Mean normalized FRET response, azi-CRD PAM DRC ([1]; log[Glutamate] (M) -4.1549): 1.112
Mean normalized FRET response, azi-CRD PAM DRC ([1]; log[Glutamate] (M) -4.52288): 1.067
Mean normalized FRET response, azi-CRD PAM DRC ([1]; log[Glutamate] (M) -5): 1.001
Mean normalized FRET response, azi-CRD PAM DRC ([1]; log[Glutamate] (M) -5.39794): 0.8946
Mean normalized FRET response, azi-CRD PAM DRC ([1]; log[Glutamate] (M) -5.82391): 0.6333
Mean normalized FRET response, azi-CRD PAM DRC ([1]; log[Glutamate] (M) -6.52288): 0.1759
Mean normalized FRET response, azi-CRD PAM DRC ([1]; log[Glutamate] (M) -7): 0.038
Mean normalized FRET response, azi-CRD PAM DRC ([1]; log[Glutamate] (M) -7.30103): 0
Mean normalized FRET response, azi-CRD PAM DRC ([1]; log[Glutamate] (M) -7.69897): 0
Mean normalized FRET response, azi-CRD PAM DRC ([1]; log[Glutamate] (M) -8): 0
SNAP-m2 - ΔEfficacy, Mean ΔEfficacy [2, 5]: 2.381
SNAP-m2 FRET response (PAM DRC), Mean ([2]; Glutamate + 10μM BINA, log[Glutamate] (M) -3): -1.024
SNAP-m2 FRET response (PAM DRC), Mean ([2]; Glutamate + 10μM BINA, log[Glutamate] (M) -4.1549): -1.044
SNAP-m2 FRET response (PAM DRC), Mean ([2]; Glutamate + 10μM BINA, log[Glutamate] (M) -4.52288): -1.065
SNAP-m2 FRET response (PAM DRC), Mean ([2]; Glutamate + 10μM BINA, log[Glutamate] (M) -5): -1.035
SNAP-m2 FRET response (PAM DRC), Mean ([2]; Glutamate + 10μM BINA, log[Glutamate] (M) -5.39794): -0.9191
SNAP-m2 FRET response (PAM DRC), Mean [2, 6]: -0.7275
SNAP-m2 FRET response (PAM DRC), Mean [2, 7]: -0.3184
SNAP-m2 FRET response (PAM DRC), Mean [2, 8]: -0.07748
SNAP-m2 FRET response (PAM DRC), Mean [2, 9]: -0.01427
SNAP-m2 FRET response (PAM DRC) [2, 10]: 0
SNAP-m2 FRET response (PAM DRC), Mean [2, 10]: 0
Mean max response (normalized max ΔFRET) ([2]; SNAP-m2, 1 mM glutamate + 10 μM modulator, normalized to 1 mM glutamate): 1.02
Mean ΔPotency ([2]; SNAP-m2, 10μM modulator, (([modulator + glutamate]EC50 – [glutamate] EC50)/[glutamate] EC50) × 100): -89.602
Mean ΔEfficacy ([2]; SNAP-m2, 10μM modulator, ([1 mM glutamate + modulator] - [1 mM glutamate]) × 100): 2.381
Hill slope of glutamate titration ([2]; SNAP-m2 sensor, + 10 μM modulator): –1.24
azi-ECL2 - ΔEfficacy, Mean ΔEfficacy [3, 5]: 42.1338
Mean ΔPotency ([3]; 10μM modulator, (([modulator + glutamate]EC50 – [glutamate] EC50)/[glutamate] EC50) × 100): -51.0252
Mean max response (normalized max ΔFRET) ([3]; azi-ECL2, 1 mM glutamate + 10 μM modulator, normalized to 1 mM glutamate): 1.42
Hill slope of glutamate titration ([3]; azi-ECL2 sensor, + 10 μM modulator): 1.06
Mean normalized azi-ECL2 FRET response ([3]; log[Glutamate] (M) -3): 1.421
Mean normalized azi-ECL2 FRET response ([3]; log[Glutamate] (M) -4.1549): 1.469
Mean normalized azi-ECL2 FRET response ([3]; log[Glutamate] (M) -4.52288): 1.344
Mean normalized azi-ECL2 FRET response ([3]; log[Glutamate] (M) -5): 1.155
Mean normalized azi-ECL2 FRET response ([3]; log[Glutamate] (M) -5.39794): 0.8858
Mean normalized azi-ECL2 FRET response ([3]; log[Glutamate] (M) -5.82391): 0.584
Mean normalized azi-ECL2 FRET response ([3]; log[Glutamate] (M) -6.52288): 0.1491
Mean normalized azi-ECL2 FRET response ([3]; log[Glutamate] (M) -7): 0.03109
Mean normalized azi-ECL2 FRET response ([3]; log[Glutamate] (M) -7.30103): 0.00416
Mean normalized azi-ECL2 FRET response ([3]; log[Glutamate] (M) -7.69897): 0
Intracellular Ca2+ Response, % 1mM Glutamate ([4]; 1mM Glutamate + 1uM BINA, individual experiments): 150.888% and 116.9% and 139.124%
Mean ΔEfficacy of glutamate ([4]; Ca2+ response, 1 mM glutamate + 1 μM modulator, ([1 mM glutamate + modulator] - [1 mM glutamate]) × 100): 35.6375
ΔEfficacy of glutamate, individual experiments ([4]; Ca2+ response, 1 mM glutamate + 1 μM modulator, single replicate): 16.9004 and 39.1239 and 50.8883
Mean ΔPotency of glutamate ([4]; Ca2+ response, glutamate + 1 μM modulator, (([modulator + glutamate]EC50 – [glutamate]EC50)/[glutamate]EC50) × 100): -89.8956
ΔPotency of glutamate, individual experiments ([4]; Ca2+ response, glutamate + 1 μM modulator, single replicate): -90.1258 and -89.6956 and -89.8653
Intracellular Ca2+ Response (normalized to 1mM glutamate), Mean ([4]; log[Glutamate] (M) -3): 1.356
Intracellular Ca2+ Response (normalized to 1mM glutamate), Mean ([4]; log[Glutamate] (M) -3.60206): 1.413
Intracellular Ca2+ Response (normalized to 1mM glutamate), Mean ([4]; log[Glutamate] (M) -4.1549): 1.344
Intracellular Ca2+ Response (normalized to 1mM glutamate), Mean ([4]; log[Glutamate] (M) -4.52288): 1.309
Intracellular Ca2+ Response (normalized to 1mM glutamate), Mean ([4]; log[Glutamate] (M) -5): 1.259
Intracellular Ca2+ Response (normalized to 1mM glutamate), Mean ([4]; log[Glutamate] (M) -5.39794): 1.0353
Intracellular Ca2+ Response (normalized to 1mM glutamate), Mean ([4]; log[Glutamate] (M) -5.82391): 0.6392
Intracellular Ca2+ Response (normalized to 1mM glutamate), Mean ([4]; log[Glutamate] (M) -6.52288): 0.1098
Intracellular Ca2+ Response (normalized to 1mM glutamate), Mean ([4]; log[Glutamate] (M) -7): 0
Intracellular Ca2+ Response (normalized to 1mM glutamate), Mean ([4]; log[Glutamate] (M) -7.30103): 0
Intracellular Ca2+ Response (normalized to 1mM glutamate), Mean ([4]; log[Glutamate] (M) -7.69897): 0
Structure (SMILES): Cc1c(OCc2cccc(-c3ccc(C(=O)O)cc3)c2)cc2c(c1C)C(=O)C(C1CCCC1)C2 (stereo not drawn) [BINA]
azi-CRD - ΔEfficacy, individual cell responses ([1]; 10μM BINA, single cells): 23.3716 and 17.6357 and 26.8405 and 19.7115 and 27.7937 and 0.5839 and -1.206 and 0.442 and -6.324
Live-cell FRET max response normalized to 1mM glutamate ([1]; azi-CRD sensor, Glutamate + 10μM BINA, individual values (N=9)): 1.278 and 1.006 and 0.9879 and 1.004 and 0.9368 and 1.234 and 1.176 and 1.2684 and 1.197
ΔPotency, individual cell ([1]; azi-CRD, 10μM modulator, calculated from individual cell responses): -93.2892 and -92.5628 and -93.8686 and -95.6587 and -92.9779 and -84.725 and -80.1033 and -74.2586 and -75.6122 and -79.7897
SNAP-m2 - ΔEfficacy, individual cell responses ([2]; 10μM BINA, single cells): 2.679 and 0.7326 and 0.3738 and 4.211 and 3.017 and 2.268 and 3.39
SNAP-m2 FRET response (PAM DRC) [2, 6]: -0.3851 and -0.8695 and -0.7127 and -0.7584 and -0.7474 and -0.9245 and -0.822 and -0.6977 and -0.989 and -0.9518 and -0.9499 and -0.2243 and -0.901 and -0.9622 and -1.01 and -0.9642 and -0.1942 and -0.3249 and -0.4164 and -0.506
SNAP-m2 FRET response (PAM DRC) [2, 7]: -0.06795 and -0.4149 and -0.3185 and -0.3338 and -0.3365 and -0.4306 and -0.3984 and -0.3309 and -0.4302 and -0.4616 and -0.4969 and -0.03041 and -0.4566 and -0.4789 and -0.4597 and -0.5155 and -0.05296 and -0.06597 and -0.09807 and -0.1208 and -0.3936 and -0.2233 and -0.4059
SNAP-m2 FRET response (PAM DRC) [2, 8]: -0.0453 and -0.1707 and -0.1814 and -0.1137 and 0 (10×) and -0.1874 and -0.2505 and -0.1579 and -0.1949 and -0.1703
SNAP-m2 FRET response (PAM DRC) [2, 9]: 0 (16×) and -0.1321 and -0.1145 and -0.02457
Live-cell FRET max response normalized to 1mM glutamate ([2]; SNAP-m2 sensor, Glutamate + 10μM BINA, individual values (N=7)): 1.03 and 1.023 and 1.0339 and 1.027 and 1.007 and 1.004 and 1.042
ΔPotency, individual cell responses ([3]; 10μM modulator, single cells, (([modulator + glutamate]EC50 – [glutamate] EC50)/[glutamate] EC50) × 100): -59.4349 and -64.4751 and -43.9117 and -59.7874 and -53.4508 and -10.4259 and -42.6395 and -39.4154 and -48.6344 and -48.1424 and -33.877 and -32.3399 and -71.1589 and -70.5942 and -70.1728 and -67.9438
ΔEfficacy, individual cell responses ([3]; 10μM modulator, single cells, ([1 mM glutamate + modulator] - [1 mM glutamate]) × 100): 29.3333 and 34.3873 and 67.0103 and 45.1311 and 54.8496 and 47.8253 and 100.958 and 52.7779 and 75.0355 and 26.9064 and 8.621 and 25.7313 and 7.026 and 14.2809
